Converted amounts (≈) assume the structure as drawn. The source made the active and inactive calls. The rule behind the calls is not given here.
What was measured:
Candida tropicalis [1] = experiment: Antifungal activity against Candida tropicalis 156 after 24 hrs by microdilution broth method; assay type: functional; conditions: Candida tropicalis, 156, 24 h
Nakaseomyces glabratus [2] = experiment: Antifungal activity against Candida glabrata 20/I after 24 hrs by microdilution broth method; assay type: functional
[3] = system: Trichophyton mentagrophytes; experiment: Antifungal activity against Trichophyton mentagrophytes 445 after 72 hrs by microdilution broth method; assay type: functional; conditions: Trichophyton mentagrophytes, 445, 72 h
Nakaseomyces glabratus [4] = experiment: Antifungal activity against Candida glabrata 20/I after 48 hrs by microdilution broth method; assay type: functional
Candida tropicalis [5] = experiment: Antifungal activity against Candida tropicalis 156 after 48 hrs by microdilution broth method; assay type: functional; conditions: Candida tropicalis, 156, 48 h
[6] = system: Trichophyton mentagrophytes; experiment: Antifungal activity against Trichophyton mentagrophytes 445 after 120 hrs by microdilution broth method; assay type: functional; conditions: Trichophyton mentagrophytes, 445, 120 h
Pichia kudriavzevii [7] = experiment: Antifungal activity against Candida krusei E28 after 24 hrs by microdilution broth method; assay type: functional; conditions: E28, 24 h
Pichia kudriavzevii [8] = experiment: Antifungal activity against Candida krusei E28 after 48 hrs by microdilution broth method; assay type: functional; conditions: E28, 48 h
Mycobacterium kansasii [9] = experiment: Antimycobacterial activity against Mycobacterium kansasii 6509/80 after 14 days by micromethod; assay type: functional; conditions: 6509/80, 336 h
Lichtheimia corymbifera = experiment: Antifungal activity against Absidia corymbifera 272 after 24 to 48 hrs by microdilution broth method; assay type: functional, organism-based
Pseudomonas aeruginosa = experiment: Antibacterial activity against gram-negative Pseudomonas aeruginosa CCM 1961 after 48 hrs by microdilution broth method; assay type: functional, organism-based
Mycobacterium kansasii [10] = experiment: Antimycobacterial activity against Mycobacterium kansasii 6509/96 after 21 days by micromethod; assay type: functional; conditions: 6509/96, 504 h
Mycobacterium kansasii [11] = experiment: Antimycobacterial activity against Mycobacterium kansasii 6509/80 after 7 days by micromethod; assay type: functional; conditions: 6509/80, 168 h
Klebsiella pneumoniae [12] = experiment: Antibacterial activity against extended spectrum beta-lactamase-positive Klebsiella pneumoniae J 14368/08 after 24 to 48 hrs by microdilution broth method; assay type: functional, organism-based
Klebsiella pneumoniae [13] = experiment: Antibacterial activity against gram-negative Klebsiella pneumoniae D 11750/08 after 24 to 48 hrs by microdilution broth method; assay type: functional, organism-based
Mycobacterium kansasii [14] = experiment: Antimycobacterial activity against Mycobacterium kansasii 6509/96 after 7 days by micromethod; assay type: functional; conditions: 6509/96, 168 h
Mycobacterium kansasii [15] = experiment: Antimycobacterial activity against Mycobacterium kansasii 6509/80 after 21 days by micromethod; assay type: functional; conditions: 6509/80, 504 h
Trichosporon asahii = experiment: Antifungal activity against Trichosporon asahii 1188 after 24 to 48 hrs by microdilution broth method; assay type: functional, organism-based
Candida albicans = experiment: Antifungal activity against Candida albicans ATCC 44859 after 24 to 48 hrs by microdilution broth method; assay type: functional, organism-based
[16] = system: Mycobacterium tuberculosis; experiment: Antimycobacterial activity against Mycobacterium tuberculosis H37Rv 331/88 after 21 days by micromethod; assay type: functional; conditions: H37Rv 331/88, 504 h
[17] = system: Mycobacterium tuberculosis; experiment: Antimycobacterial activity against Mycobacterium tuberculosis H37Rv 331/88 after 14 days by micromethod; assay type: functional; conditions: H37Rv 331/88, 336 h
Mycobacterium avium [18] = experiment: Antimycobacterial activity against Mycobacterium avium 330/88 after 21 days by micromethod; assay type: functional; conditions: 330/88, 504 h
Aspergillus fumigatus = experiment: Antifungal activity against Aspergillus fumigatus 231 after 24 to 48 hrs by microdilution broth method; assay type: functional, organism-based
Mycobacterium kansasii [19] = experiment: Antimycobacterial activity against Mycobacterium kansasii 6509/96 after 14 days by micromethod; assay type: functional; conditions: 6509/96, 336 h
Mycobacterium avium [20] = experiment: Antimycobacterial activity against Mycobacterium avium 330/88 after 14 days by micromethod; assay type: functional; conditions: 330/88, 336 h
Escherichia coli [21] = experiment: Antibacterial activity against gram-negative Escherichia coli CCM 4517 after 24 hrs by microdilution broth method; assay type: functional; conditions: CCM 4517, 24 h
Enterococcus faecalis [22] = experiment: Antibacterial activity against gram-positive Enterococcus faecalis J 14365/08 after 48 hrs by microdilution broth method; assay type: functional; conditions: J 14365/08, 48 h
Staphylococcus aureus [23] = experiment: Antibacterial activity against gram-positive Staphylococcus aureus CCM 4516/08 after 24 hrs by microdilution broth method; assay type: functional; conditions: CCM 4516/08, 24 h
Staphylococcus aureus [24] = experiment: Antibacterial activity against gram-positive methicillin-resistant Staphylococcus aureus H 5996/08 after 48 hrs by microdilution broth method; assay type: functional; conditions: H 5996/08, 48 h
Escherichia coli [25] = experiment: Antibacterial activity against gram-negative Escherichia coli CCM 4517 after 48 hrs by microdilution broth method; assay type: functional; conditions: CCM 4517, 48 h
[26] = system: Staphylococcus epidermidis; experiment: Antibacterial activity against gram-positive Staphylococcus epidermidis H 6966/08 after 48 hrs by microdilution broth method; assay type: functional; conditions: H 6966/08, 48 h
[27] = system: Staphylococcus epidermidis; experiment: Antibacterial activity against gram-positive Staphylococcus epidermidis H 6966/08 after 24 hrs by microdilution broth method; assay type: functional; conditions: H 6966/08, 24 h
Enterococcus faecalis [28] = experiment: Antibacterial activity against gram-positive Enterococcus faecalis J 14365/08 after 24 hrs by microdilution broth method; assay type: functional; conditions: J 14365/08, 24 h
Staphylococcus aureus [29] = experiment: Antibacterial activity against gram-positive methicillin-resistant Staphylococcus aureus H 5996/08 after 24 hrs by microdilution broth method; assay type: functional; conditions: H 5996/08, 24 h
Staphylococcus aureus [30] = experiment: Antibacterial activity against gram-positive Staphylococcus aureus CCM 4516/08 after 48 hrs by microdilution broth method; assay type: functional; conditions: CCM 4516/08, 48 h

OC(Cn1cncn1)(Cn1cncn1)c1ccc(F)cc1F [FLUCONAZOLE]
MIC (Candida tropicalis [1]): > 500 µM | MIC (Nakaseomyces glabratus [2]): 31.2 µM (≈ 9.57 µg/mL) | MIC [3]: 7.81 µM (≈ 2.39 µg/mL) | MIC (Nakaseomyces glabratus [4]): 500 µM (≈ 153 µg/mL) | MIC (Candida tropicalis [5]): > 500 µM | MIC [6]: 125 µM (≈ 38.3 µg/mL) | MIC (Pichia kudriavzevii [7]): 125 µM (≈ 38.3 µg/mL) | MIC (Pichia kudriavzevii [8]): 250 µM (≈ 76.6 µg/mL)

O=C(N/N=C/c1cccc(O)c1)c1ccc(C(F)(F)F)cc1
MIC (Mycobacterium kansasii [9]): 125 µM (≈ 38.5 µg/mL) | Activity (Lichtheimia corymbifera): inactive | Activity (Pseudomonas aeruginosa): inactive | MIC (Mycobacterium kansasii [10]): 500 µM (≈ 154 µg/mL) | MIC (Mycobacterium kansasii [11]): 62.5 µM (≈ 19.3 µg/mL) | Activity (Klebsiella pneumoniae [12]): inactive | Activity (Klebsiella pneumoniae [13]): inactive | MIC (Mycobacterium kansasii [14]): 250 µM (≈ 77.1 µg/mL) | MIC (Mycobacterium kansasii [15]): 250 µM (≈ 77.1 µg/mL) | Activity (Trichosporon asahii): inactive | Activity (Candida albicans): inactive | MIC [16]: 250 µM (≈ 77.1 µg/mL) | MIC [17]: 250 µM (≈ 77.1 µg/mL) | MIC (Mycobacterium avium [18]): 250 µM (≈ 77.1 µg/mL) | Activity (Aspergillus fumigatus): inactive | MIC (Mycobacterium kansasii [19]): 500 µM (≈ 154 µg/mL) | MIC (Mycobacterium avium [20]): 250 µM (≈ 77.1 µg/mL)

O=C(NN=C1CCCCC1)c1ccc(C(F)(F)F)cc1
MIC (Mycobacterium kansasii [9]): > 1000 µM | MIC (Mycobacterium kansasii [10]): 1000 µM (≈ 284 µg/mL) | MIC (Mycobacterium kansasii [11]): 500 µM (≈ 142 µg/mL) | MIC (Mycobacterium kansasii [14]): 500 µM (≈ 142 µg/mL) | MIC (Mycobacterium kansasii [15]): > 1000 µM | MIC [16]: 500 µM (≈ 142 µg/mL) | MIC [17]: 250 µM (≈ 71.1 µg/mL) | MIC (Mycobacterium avium [18]): > 125 µM | MIC (Mycobacterium kansasii [19]): 1000 µM (≈ 284 µg/mL) | MIC (Mycobacterium avium [20]): > 125 µM

O=C(N/N=C/c1cccc(Cl)c1)c1ccc(C(F)(F)F)cc1
MIC (Mycobacterium kansasii [9]): > 125 µM | Activity (Lichtheimia corymbifera): inactive | Activity (Pseudomonas aeruginosa): inactive | MIC (Mycobacterium kansasii [10]): > 125 µM | MIC (Mycobacterium kansasii [11]): 125 µM (≈ 40.8 µg/mL) | Activity (Klebsiella pneumoniae [12]): inactive | Activity (Klebsiella pneumoniae [13]): inactive | MIC (Mycobacterium kansasii [14]): > 125 µM | MIC (Mycobacterium kansasii [15]): > 125 µM | Activity (Trichosporon asahii): inactive | Activity (Candida albicans): inactive | MIC [16]: > 125 µM | MIC [17]: > 125 µM | MIC (Mycobacterium avium [18]): > 125 µM | Activity (Aspergillus fumigatus): inactive | MIC (Mycobacterium kansasii [19]): > 125 µM | MIC (Mycobacterium avium [20]): > 125 µM

CC(C)=NNC(=O)c1ccc(C(F)(F)F)cc1
MIC (Mycobacterium kansasii [9]): > 125 µM | MIC (Candida tropicalis [1]): > 500 µM | MIC (Nakaseomyces glabratus [2]): > 500 µM | Activity (Lichtheimia corymbifera): inactive | Activity (Pseudomonas aeruginosa): inactive | MIC (Mycobacterium kansasii [10]): > 125 µM | MIC (Escherichia coli [21]): > 500 µM | MIC (Mycobacterium kansasii [11]): 125 µM (≈ 30.5 µg/mL) | MIC [3]: > 500 µM | MIC (Enterococcus faecalis [22]): 500 µM (≈ 122 µg/mL) | Activity (Klebsiella pneumoniae [12]): inactive | MIC (Staphylococcus aureus [23]): > 500 µM | MIC (Staphylococcus aureus [24]): > 500 µM | MIC (Nakaseomyces glabratus [4]): > 500 µM | Activity (Klebsiella pneumoniae [13]): inactive | MIC (Candida tropicalis [5]): > 500 µM | MIC (Escherichia coli [25]): > 500 µM | MIC (Mycobacterium kansasii [14]): > 125 µM | MIC (Mycobacterium kansasii [15]): > 125 µM | Activity (Trichosporon asahii): inactive | Activity (Candida albicans): inactive | MIC [16]: > 125 µM | MIC [26]: > 500 µM | MIC [6]: > 500 µM | MIC [27]: 500 µM (≈ 122 µg/mL) | MIC [17]: > 125 µM | MIC (Enterococcus faecalis [28]): 250 µM (≈ 61.1 µg/mL) | MIC (Mycobacterium avium [18]): > 125 µM | Activity (Aspergillus fumigatus): inactive | MIC (Mycobacterium kansasii [19]): > 125 µM | MIC (Mycobacterium avium [20]): > 125 µM | MIC (Pichia kudriavzevii [7]): > 500 µM | MIC (Staphylococcus aureus [29]): > 500 µM | MIC (Pichia kudriavzevii [8]): > 500 µM | MIC (Staphylococcus aureus [30]): > 500 µM

O=C(N/N=C/c1ccc([N+](=O)[O-])cc1)c1ccc(C(F)(F)F)cc1
MIC (Mycobacterium kansasii [9]): 62.5 µM (≈ 21.1 µg/mL) | Activity (Lichtheimia corymbifera): inactive | Activity (Pseudomonas aeruginosa): inactive | MIC (Mycobacterium kansasii [10]): > 250 µM | MIC (Mycobacterium kansasii [11]): 32 µM (≈ 10.8 µg/mL) | Activity (Klebsiella pneumoniae [12]): inactive | Activity (Klebsiella pneumoniae [13]): inactive | MIC (Mycobacterium kansasii [14]): 250 µM (≈ 84.3 µg/mL) | MIC (Mycobacterium kansasii [15]): 62.5 µM (≈ 21.1 µg/mL) | Activity (Trichosporon asahii): inactive | Activity (Candida albicans): inactive | MIC [16]: > 250 µM | MIC [17]: 125 µM (≈ 42.2 µg/mL) | MIC (Mycobacterium avium [18]): > 250 µM | Activity (Aspergillus fumigatus): inactive | MIC (Mycobacterium kansasii [19]): > 250 µM | MIC (Mycobacterium avium [20]): > 250 µM

Source: ChEMBL document CHEMBL4177650, “Synthesis and biological evolution of hydrazones derived from 4-(trifluoromethyl)benzohydrazide” (Bioorg Med Chem Lett, 2017)
